Experimental data reported in US10597405B2, “Chemical compounds” (ASTRAZENECA AB, priority 2017, dated 2020).

Columns and labels:
KRasG12C [1] = target: T1, KRasG12C (Homo sapiens, UniProt P01116, G12C); assay: KRasG12C Mass Spectrometry adducting assay; format: binding; details: 10 μM test compound, 4 μM KRasG12C, 4 hours reaction; single experiment or average of two or more
T1 construct: biotin (biotinylated); made in house
Method: KRasG12C Mass Spectrometry Adducting Assay
Enzyme solutions were prepared in assay buffer containing 20 mM HEPES (pH 7.5), 5 mM MgCl2, and 150 mM NaCl. 4 μM GDP loaded biotinylated KRas^G12C was prepared in assay buffer and 50 μl added into each well of a 96 well polypropylene assay plate (Greiner, #651201) containing 500 nl of 1 mM test compounds (final concentration 10 μM), this was allowed to react for 4 hours before the addition of 50 μl 1% Formic acid to quench the reaction. The plate was sealed before reading on a Xevo G2 QTOF (Waters) and Acquity LC system (Waters). 10 μl of sample was injected onto a Xbridge BEH300; C4; 3.5 um; 2.1×50 mm column (Waters) running a 3 minute gradient. Blank samples were run in between each test sample.
Data was analysed in Mass Lynx software (Waters), the Total ion count (TIC) trace was used and the eluted protein peak data combined. Using the combined spectrum the data was deconvoluted using MaxEnt1 method. The peak area for apo-protein KRas^G12C (APO) and KRAS+relative cmpd mass (adduct) were measured, and a percentage adduct was calculated using the following calculation: Percent adduct=100*(area of adduct peak/(sum of APO+adduct peaks)

KRasG12C [2] = target: T1, KRasG12C; assay: KRasG12C functional assay (HTRF nucleotide exchange / Raf RBD binding); format: biochemical; details: GDP loaded biotinylated KRasG12C, samples incubated 4 hrs, FRET readout; single experiment or average of two or more
Method: KRasG12C Functional Assay
All enzyme and substrate solutions were prepared in assay buffer containing 20 mM HEPES (pH 7.5), 5 mM MgCl2, 150 mM NaCl, and 0.01% Tween 20. […] In a separate mix 20 nM GST-Raf Ras binding domain (GST-Raf RBD, purified in house) and 4 μg/ml anti-GST XL665 antibody (Cisbio) was prepared in assay buffer containing 50 mM Potassium Fluoride and 0.05 mg/ml BSA and equilibrated for 4 hours before adding 0.6 μM Guanosine 5′-[γ-thio]triphosphate (GTPγS, Sigma) and 0.08 μM SOS (purified in house). 5 μl of the GST-RAF RBD mix was then dispensed into each well of the assay plate. […] This is detected simultaneously via the specific binding interaction between active GTPγS KRas^G12C with GST-Raf RBD which brings the europium and XL665 into close proximity enabling an increased FRET signal to be detected on a Pherastar (BMG) plate reader equipped with the HTRF filter module. […] IC50 values were calculated from normalised dose-response response FRET data curve fitted in Genedata screener (Basel, Switzerland).

| Structure (SMILES) | KRasG12C M.S. Binding Mean adduct % (KRasG12C [1]) | IC50 (KRasG12C [2]) |
| --- | --- | --- |
| C=CC(=O)N1CCN2c3c(cnc4c(OC)c(-c5c(O)cccc5F)c(Cl)cc34)OC[C@H]2C1 (single isomer, unassigned) [Compound 24] | 96% | 70 nM |
| C=CC(=O)N1CCN2c3c(cnc4cc(-c5c(O)cccc5F)c(Cl)cc34)N(C)C(=O)C2(C)C1 (single isomer, unassigned) [Compound 33, 11-Chloro-10-(2-fluoro-6-hydroxyphenyl)-4a,6-dimethyl-3-(prop-2-enoyl)-2,3,4,4a-tetrahydro-1H-pyrazino[1′,2′:4,5]pyrazino[2,3-c]quinolin-5(6H)-one] | 87% | 745 nM |
| C=CC(=O)N1CCN2c3c(cnc4c(C)c(-c5c(O)cccc5F)c(Cl)cc34)OC[C@H]2C1 (single isomer, unassigned) [Compound 38] | 7% | 9700 nM |
| C=CC(=O)N1CCN2c3c(cnc4cc(-c5c(F)ccc6cc[nH]c(=O)c56)c(Cl)cc34)OC[C@H]2C1 (single isomer, unassigned) [Compound 45] | 96% | 26 nM |
| C=CC(=O)N1CCN2c3c(cnc4cc(-c5c(C)ccc6[nH]c(=O)n(C)c56)c(Cl)cc34)OC[C@H]2C1 (single isomer, unassigned) [Compound 67] | 97% | 47 nM |
| C=CC(=O)N1CCN2c3c(cnc4cc(-c5c(C)ccc6[nH]c(=O)n(C)c56)c(Cl)cc34)OC[C@H]2C1 (single isomer, unassigned) [Compound 68] | 4% | 11400 nM |
| C=CC(=O)N1CCN2c3c(cnc4cc(-c5c(C)ccc6cc[nH]c(=O)c56)c(Cl)cc34)OC[C@H]2C1 (single isomer, unassigned) [Compound 69] | 12% | 2700 nM |
| C=CC(=O)N1CCN2c3c(cnc4cc(-c5c(C)ccc6cc[nH]c(=O)c56)c(Cl)cc34)OC[C@H]2C1 (single isomer, unassigned) [Compound 70] | 94% | 49 nM |
| C=CC(=O)N1CCN2c3c(cnc4cc(-c5c(C)ccc6[nH]c(=O)[nH]c56)c(Cl)cc34)OC[C@H]2C1 (single isomer, unassigned) [Compound 71] | 94% | 47 nM |
| C=CC(=O)N1CCN2c3c(cnc4c(F)c(-c5c(C)ccc6[nH]cnc56)c(Cl)cc34)OC[C@H]2C1 (single isomer, unassigned) [Compound 77] | 60% | 28 nM |
| C=CC(=O)N1CCN2c3c(cnc4c(C)c(-c5c(O)cccc5F)c(C)nc34)N(C)C(=O)[C@H]2C1 (single isomer, unassigned) [Compound 92] | 97% | 82 nM |
| C=CC(=O)N1CCN2c3c(cnc4cc(-c5c(O)cccc5F)c(Cl)cc34)OC[C@H]2C1 (single isomer, unassigned) [Example 1] | 96% | 186 nM |
| C=CC(=O)N1CCN2c3c(cnc4cc(-c5c(O)cccc5F)c(Cl)cc34)OC[C@H]2C1 (single isomer, unassigned) [Example 2] | 87% | 281 nM |
| C=CC(=O)N1CCN2c3c(cnc4cc(-c5c(C)ccc6[nH]ncc56)c(Cl)cc34)OC[C@H]2C1 (single isomer, unassigned) [Example 3] | 93% | 81 nM |
| C=CC(=O)N1CCN2c3c(cnc4c(F)c(-c5c(O)cccc5F)c(Cl)cc34)OC[C@H]2C1 (single isomer, unassigned) [Example 8] | – | 8500 nM |
| C=CC(=O)N1CCN2c3c(cnc4c(F)c(-c5c(O)cccc5F)c(Cl)cc34)N(C)C(=O)C2C1 (single isomer, unassigned) [Example 18, 3-acryloyl-11-chloro-9-fluoro-10-(2-fluoro-6-hydroxyphenyl)-6-methyl-2,3,4,4a-tetrahydro-1H-pyrazino[1′,2′:4,5]pyrazino[2,3-c]quinolin-5(6H)-one] | 3% | 3500 nM |
| C=CC(=O)N1C[C@@H]2C(=O)N(C)c3cnc4c(F)c(-c5c(O)cccc5F)c(Cl)cc4c3N2C[C@H]1C (single isomer, unassigned) [Example 21] | 15% | 9500 nM |
| C=CC(=O)N1CCN2c3c(cnc4cc(-c5c(O)cccc5F)c(Cl)cc34)OC[C@H]2C1 (single isomer, unassigned) [Mixture of 1 & 2] | – | 211 nM |
| C=CC(=O)N1CCN2c3c(cnc4cc(-c5c(O)cccc5F)c(Cl)c(Cl)c34)N(C)C(=O)[C@H]2C1 [Compound 60, (4aR)-11,12-Dichloro-10-(2-fluoro-6-hydroxyphenyl)-6-methyl-3-(prop-2-enoyl)-2,3,4,4a-tetrahydro-1H-pyrazino[1′,2′:4,5]pyrazino[2,3-c]quinolin-5(6H)-one] | – | 501 nM |

Other lines, results leading:

| KRasG12C M.S. Binding Mean adduct % (KRasG12C [1]) | IC50 (KRasG12C [2]) | Structure (SMILES) |
| --- | --- | --- |
| 95% | 47 nM | C=CC(=O)N1CCN2c3c(cnc4c(F)c(-c5c(C)ccc6[nH]ncc56)c(Cl)cc34)N(C)C(=O)[C@H]2C1 (single isomer, unassigned) [Compound 49] |
| 95% | 47 nM | C=CC(=O)N1CCN2c3c(cnc4cc(-c5c(C)ccc6[nH]cnc56)c(Cl)cc34)OC[C@H]2C1 (single isomer, unassigned) [Compound 65] |
| 25% | 654 nM | C=CC(=O)N1CCN2c3c(cnc4cc(-c5c(C)ccc6[nH]cnc56)c(Cl)cc34)OC[C@H]2C1 (single isomer, unassigned) [Compound 66] |
| 96% | 96 nM | C#Cc1cc2c3c(cnc2cc1-c1c(C)ccc2[nH]ncc12)OC[C@H]1CN(C(=O)C=C)CCN31 (single isomer, unassigned) [Compound 75] |
| 95% | 41 nM | C=CC(=O)N1CCN2c3c(cnc4c(F)c(-c5c(C)ccc6c5C(=O)NC6)c(Cl)cc34)OC[C@H]2C1 (single isomer, unassigned) [Compound 86] |
| 96% | 14 nM | C=CC(=O)N1CCN2c3c(cnc4c(F)c(-c5c(O)cccc5F)c(Cl)cc34)NC(=O)[C@H]2C1 (single isomer, unassigned) [Compound 88] |
| 95% | 20 nM | C=CC(=O)N1CCN2c3c(cnc4c(F)c(-c5c(O)cccc5F)c(Cl)cc34)OC[C@H]2C1 (single isomer, unassigned) [Example 7] |
| 3% | > 9200 nM | C=CC(=O)N1CCN2c3c(cnc4c(F)c(-c5c(O)cccc5F)c(Cl)cc34)N(C)C(=O)C2C1 (single isomer, unassigned) [Example 19, 3-acryloyl-11-chloro-9-fluoro-10-(2-fluoro-6-hydroxyphenyl)-6-methyl-2,3,4,4a-tetrahydro-1H-pyrazino[1′,2′:4,5]pyrazino[2,3-c]quinolin-5(6H)-one] |
| 51% | 630 nM | C=CC(=O)N1CCN2c3c(cnc4c(F)c(-c5c(O)cccc5F)c(Cl)cc34)N(C)C(=O)C2C1 (single isomer, unassigned) [Example 20, 3-acryloyl-11-chloro-9-fluoro-10-(2-fluoro-6-hydroxyphenyl)-6-methyl-2,3,4,4a-tetrahydro-1H-pyrazino[1′,2′:4,5]pyrazino[2,3-c]quinolin-5(6H)-one] |
| – | 77 nM | C=CC(=O)N1CCN2c3c(cnc4c(F)c(-c5c(O)cccc5F)c(F)cc34)N(C)C(=O)[C@H]2C1 [Compound 42, (4aR)-3-Acryloyl-9,11-difluoro-10-(2-fluoro-6-hydroxyphenyl)-6-methyl-2,3,4,4a-tetrahydro-1H-pyrazino[1′,2′:4,5]pyrazino[2,3-c]quinolin-5(6H)-one] |
| – | 202 nM | C=CC(=O)N1CCN2c3c(cnc4cc(-c5c(O)cccc5F)c(Cl)c(F)c34)N(C)C(=O)[C@H]2C1 [Compound 59, (4aR)-11-Chloro-12-fluoro-10-(2-fluoro-6-hydroxyphenyl)-6-methyl-3-(prop-2-enoyl)-2,3,4,4a-tetrahydro-1H-pyrazino[1′,2′:4,5]pyrazino[2,3-c]quinolin-5(6H)-one] |
| – | 333 nM | C=CC(=O)N1CCN2c3c(cnc4cc(-c5c(O)cccc5F)c(Cl)cc34)N(CC)C(=O)[C@H]2C1 [Compound 90, (4aR)-11-Chloro-6-ethyl-10-(2-fluoro-6-hydroxyphenyl)-3-(prop-2-enoyl)-2,3,4,4a-tetrahydro-1H-pyrazino[1′,2′:4,5]pyrazino[2,3-c]quinolin-5(6H)-one] |
